Experimental data taken from patent US20260217673A1, “NOVEL COMPOUND AS RON INHIBITOR” (LG CHEM, LTD., priority 2022, published 2026).

How the values were obtained:
RON = RON (Homo sapiens, UniProt Q04912); test: RON inhibitory activity, TR-FRET kinase assay; format: biochemical; conditions: RON protein, ULight-labeled Poly GT substrate
Procedure: To measure the RON inhibitory activity of the example compounds, the IC50 of the compounds was measured using time-resolved fluorescence energy transfer (TR-FRET).
Specifically, the compound was prepared at a concentration of 1 mM with 100% DMSO and serially diluted 10 times through 3-fold dilution. 2 μl of the serially diluted compound was added to a 96-well plate containing 48 μl of 1× kinase reaction buffer (50 mM HEPES (pH 7.4), 0.01% Tween-20, 5 mM DTT, 0.5 mM Na3VO4, 2 mM EGTA, 10 mM MgCl2).
The RON protein was diluted with a RON storage buffer (50 mM Tris-HCl (pH 7.5), 150 mM NaCl, 0.5 mM EDTA, 0.02% Triton X-100) to a concentration of 49.3 nM, and then diluted again with 1× kinase reaction buffer to be 0.4 nM. As a substrate cocktail, a RON-specific substrate mixture (40 μM ULight-labeled Poly GT, 100 nM ATP) was prepared at a concentration twice the final reaction concentration.
(§1) After that, a 384-well plate was prepared, and 2.5 μl of the diluted example compound was added to each of the experimental group wells, and 2.5 μl of a 4% DMSO solution was dispensed into high control wells and low control wells.
(§2) Afterward, 2.5 μl of 0.4 nM RON was dispensed into the high control wells and the experimental group wells, and 2.5 μl of 1× kinase reaction buffer was added to the low control wells, and after centrifugation at 1000 RPM for 40 seconds at room temperature, the mixtures were incubated at room temperature for 20 to 30 minutes. Then, 5 μl of the substrate cocktail (2×) was dispensed into all wells, and after centrifugation at 1000 RPM for 40 seconds at room temperature, the mixtures were incubated at room temperature for 60 minutes. Afterward, 5 μl of 30 mM EDTA was added to all wells to terminate the reaction, and the mixtures were incubated again at room temperature for 5 minutes. Thereafter, 5 μl of 4× phosphotyrosine antibodies (Perkin Elmer) containing europium was added to all wells and incubated at room temperature for 60 minutes. After the incubation, the 384-well-plate was read with a Vison plate reader. At this time, the excitation wavelength was 340 nm, and the emission wavelengths were 620 nm and 665 nm. The IC50 value of each example compound was derived using the GraphPd Prism7 program.

cMET = cMET (Homo sapiens, UniProt P08581); test: MET (cMET) enzyme inhibitory activity, TR-FRET kinase assay; format: biochemical; conditions: cMET protein, TK peptide substrate
Procedure: In addition, to measure cMET enzyme activity inhibition, an experiment was performed by the same method as the experiment for measuring the RON enzyme activity inhibition.
Specifically, the compound was prepared at a concentration of 1 mM with 100% DMSO and serially diluted 10 times through 3-fold dilution. 2 μl of the serially diluted compound was added to a 96-well plate containing 48 μl 1× kinase reaction buffer (50 mM HEPES (pH 7.4), 0.05% BSA, 0.005% Tween-20, 1 mM DTT, 0.5 mM MnCl2, 20 mM MgCl2).
The cMET protein was diluted in a cMET storage buffer (50 mM Tris-HCl (pH 7.5), 150 mM NaCl, 0.05% Brij35, 1 mM DTT, 10% glycerol) to a concentration of 263 nM, and then diluted again with 1× kinase reaction buffer to 2 nM. As a substrate cocktail, a MET-specific substrate mixture (5 μM TK peptide, 10 mM ATP) was prepared at a concentration twice the final reaction concentration.
as §1
as §2, with “μl of 2 nM cMET” for “μl of 0.4 nM RON”, “2 nM cMET was dispensed” for “0.4 nM RON was dispensed”, “was dispensed to the high” for “was dispensed into the high”, “μl of 90 mM EDTA” for “μl of 30 mM EDTA”

cMET, sequence (P08581 25-1390): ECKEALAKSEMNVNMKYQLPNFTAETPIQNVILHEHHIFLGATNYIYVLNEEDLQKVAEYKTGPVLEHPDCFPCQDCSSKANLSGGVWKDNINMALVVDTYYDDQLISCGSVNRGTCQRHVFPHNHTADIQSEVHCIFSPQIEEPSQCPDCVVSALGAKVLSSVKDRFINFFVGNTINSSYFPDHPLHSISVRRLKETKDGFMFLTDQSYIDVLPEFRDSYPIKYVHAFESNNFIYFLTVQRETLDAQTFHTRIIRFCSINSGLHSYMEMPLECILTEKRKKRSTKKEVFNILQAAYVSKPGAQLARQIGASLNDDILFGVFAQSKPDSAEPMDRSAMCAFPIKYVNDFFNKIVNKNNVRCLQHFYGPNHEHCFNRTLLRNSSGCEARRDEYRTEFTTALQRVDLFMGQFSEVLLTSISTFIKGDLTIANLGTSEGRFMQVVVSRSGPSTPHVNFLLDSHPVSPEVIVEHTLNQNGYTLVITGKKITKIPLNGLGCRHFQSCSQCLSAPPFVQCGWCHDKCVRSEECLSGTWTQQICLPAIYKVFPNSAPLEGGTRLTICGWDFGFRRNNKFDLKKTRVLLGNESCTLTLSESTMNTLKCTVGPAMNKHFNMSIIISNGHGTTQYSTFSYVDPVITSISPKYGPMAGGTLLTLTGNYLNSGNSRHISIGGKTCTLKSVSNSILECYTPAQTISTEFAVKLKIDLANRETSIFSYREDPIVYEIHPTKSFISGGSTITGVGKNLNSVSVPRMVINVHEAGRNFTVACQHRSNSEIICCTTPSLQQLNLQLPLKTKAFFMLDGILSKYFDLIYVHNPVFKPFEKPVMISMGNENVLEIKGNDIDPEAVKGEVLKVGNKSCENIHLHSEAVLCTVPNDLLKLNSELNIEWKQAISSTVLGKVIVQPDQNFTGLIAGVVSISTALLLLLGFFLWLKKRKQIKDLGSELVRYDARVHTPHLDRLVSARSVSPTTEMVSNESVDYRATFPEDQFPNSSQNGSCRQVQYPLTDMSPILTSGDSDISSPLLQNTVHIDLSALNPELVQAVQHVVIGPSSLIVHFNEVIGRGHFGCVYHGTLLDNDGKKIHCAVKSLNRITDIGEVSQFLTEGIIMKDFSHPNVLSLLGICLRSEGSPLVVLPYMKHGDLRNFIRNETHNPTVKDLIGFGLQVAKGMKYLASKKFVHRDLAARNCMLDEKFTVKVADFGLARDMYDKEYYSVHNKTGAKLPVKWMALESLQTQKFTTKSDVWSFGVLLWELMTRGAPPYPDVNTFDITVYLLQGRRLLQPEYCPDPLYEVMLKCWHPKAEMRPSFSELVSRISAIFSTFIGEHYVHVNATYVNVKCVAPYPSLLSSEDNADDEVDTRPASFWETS
RON, sequence (Q04912 25-1400, species assumed): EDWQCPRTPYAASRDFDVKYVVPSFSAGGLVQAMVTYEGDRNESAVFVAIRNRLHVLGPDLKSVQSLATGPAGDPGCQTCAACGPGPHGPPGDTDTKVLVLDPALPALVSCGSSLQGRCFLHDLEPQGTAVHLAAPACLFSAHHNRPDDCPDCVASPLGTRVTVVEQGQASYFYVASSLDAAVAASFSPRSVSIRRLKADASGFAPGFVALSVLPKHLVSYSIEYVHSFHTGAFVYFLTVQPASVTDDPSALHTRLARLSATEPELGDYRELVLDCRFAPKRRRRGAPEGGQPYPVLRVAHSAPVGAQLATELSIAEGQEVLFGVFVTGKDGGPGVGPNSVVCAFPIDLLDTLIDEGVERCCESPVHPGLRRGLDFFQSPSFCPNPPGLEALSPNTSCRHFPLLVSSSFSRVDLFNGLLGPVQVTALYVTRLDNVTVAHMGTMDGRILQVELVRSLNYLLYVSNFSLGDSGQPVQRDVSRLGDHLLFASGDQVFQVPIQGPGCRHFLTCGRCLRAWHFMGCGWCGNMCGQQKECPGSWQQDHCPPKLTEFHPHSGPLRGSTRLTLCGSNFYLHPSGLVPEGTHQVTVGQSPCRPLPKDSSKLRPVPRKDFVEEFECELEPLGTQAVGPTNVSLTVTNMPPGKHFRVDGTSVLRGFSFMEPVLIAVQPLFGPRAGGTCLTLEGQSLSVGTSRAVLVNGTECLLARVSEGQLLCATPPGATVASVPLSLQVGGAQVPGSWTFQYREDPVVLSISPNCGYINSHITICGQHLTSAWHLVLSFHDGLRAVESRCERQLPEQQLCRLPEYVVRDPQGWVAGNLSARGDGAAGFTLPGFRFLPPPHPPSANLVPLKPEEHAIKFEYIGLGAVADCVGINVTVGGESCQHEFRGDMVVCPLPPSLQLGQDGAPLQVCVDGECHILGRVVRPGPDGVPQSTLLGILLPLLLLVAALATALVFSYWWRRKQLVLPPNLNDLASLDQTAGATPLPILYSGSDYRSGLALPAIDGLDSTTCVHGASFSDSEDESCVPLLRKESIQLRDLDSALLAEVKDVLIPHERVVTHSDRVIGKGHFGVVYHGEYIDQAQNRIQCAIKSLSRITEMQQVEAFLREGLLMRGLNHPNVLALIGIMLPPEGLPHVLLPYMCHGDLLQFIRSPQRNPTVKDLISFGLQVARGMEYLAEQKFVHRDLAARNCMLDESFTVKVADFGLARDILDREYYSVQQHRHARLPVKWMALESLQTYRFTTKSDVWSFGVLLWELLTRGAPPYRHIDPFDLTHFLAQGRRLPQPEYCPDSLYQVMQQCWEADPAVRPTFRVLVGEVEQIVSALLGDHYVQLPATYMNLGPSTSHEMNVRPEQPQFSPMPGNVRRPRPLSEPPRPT

Nc1nccc(Oc2c(F)cc(NC(=O)c3cnn(-c4ncccn4)c3C(F)(F)F)cc2F)c1C1CC1 [Example 41, N-(4-((2-amino-3-cyclopropylpyridin-4-yl)oxy)-3,5-difluorophenyl)-1-(pyrimidin-2-yl)-5-(trifluoromethyl)-1H-pyrazole-4-carboxamide]
IC50 (RON): < 50 nM
IC50 (cMET): 500 to 5000 nM

Nc1nccc(Oc2c(F)cc(NC(=O)c3cnn(-c4cccnn4)c3C(F)(F)F)cc2F)c1C1CC1 [Example 42, N-(4-((2-amino-3-cyclopropylpyridin-4-yl)oxy)-3,5-difluorophenyl)-1-(pyridazin-3-yl)-5-(trifluoromethyl)-1H-pyrazole-4-carboxamide]
IC50 (RON): < 50 nM
IC50 (cMET): 500 to 5000 nM

CC(C)c1c(Oc2c(F)cc(NC(=O)c3cnn(-c4ccccc4)c3C(F)(F)F)cc2F)ccnc1N [Example 43, N-(4-((2-amino-3-isopropylpyridin-4-yl)oxy)-3,5-difluorophenyl)-1-phenyl-5-(trifluoromethyl)-1H-pyrazole-4-carboxamide]
IC50 (RON): < 50 nM
IC50 (cMET): 500 to 5000 nM

CC(C)c1c(Oc2c(F)cc(NC(=O)c3cnn(-c4ncccc4Cl)c3C(F)(F)F)cc2F)ccnc1N [Example 44, N-(4-((2-amino-3-isopropylpyridin-4-yl)oxy)-3,5-difluorophenyl)-1-(3-chloropyridin-2-yl)-5-(trifluoromethyl)-1H-pyrazole-4-carboxamide]
IC50 (RON): < 50 nM
IC50 (cMET): 500 to 5000 nM

CC(C)c1c(Oc2c(F)cc(NC(=O)c3cnn(-c4ncccn4)c3C(F)(F)F)cc2F)ccnc1N [Example 45, N-(4-((2-amino-3-isopropylpyridin-4-yl)oxy)-3,5-difluorophenyl)-1-(pyrimidin-2-yl)-5-(trifluoromethyl)-1H-pyrazole-4-carboxamide]
IC50 (RON): < 50 nM
IC50 (cMET): 500 to 5000 nM

CC(C)c1c(Oc2c(F)cc(NC(=O)c3cnn(-c4ncccc4F)c3C(F)(F)F)cc2F)ccnc1N [Example 46, N-(4-((2-amino-3-isopropylpyridin-4-yl)oxy)-3,5-difluorophenyl)-1-(3-fluoropyridin-2-yl)-5-(trifluoromethyl)-1H-pyrazole-4-carboxamide]
IC50 (RON): < 50 nM
IC50 (cMET): 500 to 5000 nM

Nc1nccc(Oc2c(F)cc(NC(=O)c3cnn(-c4ncccc4F)c3C(F)(F)F)cc2F)c1CN1CCOCC1 [Example 47, N-(4-((2-amino-3-(morpholinomethyl)pyridin-4-yl)oxy)-3,5-difluorophenyl)-1-(3-fluoropyridine-2-yl)-5-(trifluoromethyl)-1H-pyrazole-4-carboxamide]
IC50 (RON): < 50 nM
IC50 (cMET): 500 to 5000 nM

Nc1nccc(Oc2c(F)cc(NC(=O)c3cnn(-c4ncccn4)c3C(F)(F)F)cc2F)c1CN1CCOCC1 [Example 48, N-(4-((2-amino-3-(morpholinomethyl)pyridin-4-yl)oxy)-3,5-difluorophenyl)-1-(pyrimidin-2-yl)-5-(trifluoromethyl)-1H-pyrazole-4-carboxamide]
IC50 (RON): < 50 nM
IC50 (cMET): > 5000 nM

Nc1nccc(Oc2c(F)cc(NC(=O)c3cnn(-c4ncccc4Cl)c3C(F)(F)F)cc2F)c1CN1CCOCC1 [Example 49, N-(4-((2-amino-3-(morpholinomethyl)pyridin-4-yl)oxy)-3,5-difluorophenyl)-1-(3-chloropyridin-2-yl)-5-(trifluoromethyl)-1H-pyrazole-4-carboxamide]
IC50 (RON): < 50 nM
IC50 (cMET): 500 to 5000 nM

Nc1nccc(Oc2c(F)cc(NC(=O)c3cnn(-c4ccccc4)c3C(F)(F)F)cc2F)c1CN1CCOCC1 [Example 50, N-(4-((2-amino-3-(morpholinomethyl)pyridin-4-yl)oxy)-3,5-difluorophenyl)-1-phenyl-5-(trifluoromethyl)-1H-pyrazole-4-carboxamide]
IC50 (RON): < 50 nM
IC50 (cMET): 500 to 5000 nM

Nc1nccc(Oc2c(F)cc(NC(=O)c3cnn(-c4ccccc4)c3C(F)(F)F)cc2F)c1C#CCO [Example 51, N-(4-((2-amino-3-(3-hydroxyprop-1-yn-1-yl)pyridin-4-yl)oxy)-3,5-difluorophenyl)-1-phenyl-5-(trifluoromethyl)-1H-pyrazole-4-carboxamide]
IC50 (RON): < 50 nM
IC50 (cMET): 500 to 5000 nM

Nc1nccc(Oc2c(F)cc(NC(=O)c3cnn(-c4ccccn4)c3C(F)(F)F)cc2F)c1C#CCO [Example 52, N-(4-((2-amino-3-(3-hydroxyprop-1-yn-1-yl)pyridin-4-yl)oxy)-3,5-difluorophenyl)-1-(pyridin-2-yl)-5-(trifluoromethyl)-1H-pyrazole-4-carboxamide]
IC50 (RON): < 50 nM
IC50 (cMET): 50 to 500 nM

Nc1nccc(Oc2c(F)cc(NC(=O)c3cnn(-c4ncccc4F)c3C(F)(F)F)cc2F)c1C#CCO [Example 53, N-(4-((2-amino-3-(3-hydroxyprop-1-yn-1-yl)pyridin-4-yl)oxy)-3,5-difluorophenyl)-1-(3-fluoropyridin-2-yl)-5-(trifluoromethyl)-1H-pyrazole-4-carboxamide]
IC50 (RON): < 50 nM
IC50 (cMET): 50 to 500 nM

Nc1nccc(Oc2c(F)cc(NC(=O)c3cnn(-c4ncccc4Cl)c3C(F)(F)F)cc2F)c1C#CCO [Example 54, N-(4-((2-amino-3-(3-hydroxyprop-1-yn-1-yl)pyridin-4-yl)oxy)-3,5-difluorophenyl)-1-(3-chloropyridin-2-yl)-5-(trifluoromethyl)-1H-pyrazole-4-carboxamide]
IC50 (RON): < 50 nM
IC50 (cMET): 50 to 500 nM

Nc1nccc(Oc2c(F)cc(NC(=O)c3cnn(-c4ncccn4)c3C(F)(F)F)cc2F)c1C#CCO [Example 55, N-(4-((2-amino-3-(3-hydroxyprop-1-yn-1-yl)pyridin-4-yl)oxy)-3,5-difluorophenyl)-1-(pyrimidin-2-yl)-5-(trifluoromethyl)-1H-pyrazole-4-carboxamide]
IC50 (RON): < 50 nM
IC50 (cMET): 50 to 500 nM

Nc1nccc(Oc2c(F)cc(NC(=O)c3cnn(-c4cccnn4)c3C(F)(F)F)cc2F)c1C#CCO [Example 56, N-(4-((2-amino-3-(3-hydroxyprop-1-yn-1-yl)pyridin-4-yl)oxy)-3,5-difluorophenyl)-1-(pyridazin-3-yl)-5-(trifluoromethyl)-1H-pyrazole-4-carboxamide]
IC50 (RON): < 50 nM
IC50 (cMET): 50 to 500 nM

CC(O)C#Cc1c(Oc2c(F)cc(NC(=O)c3cnn(-c4ncccc4F)c3C(F)(F)F)cc2F)ccnc1N (centres unmarked) [Example 57, N-(4-((2-amino-3-(3-hydroxybut-1-yn-1-yl)pyridin-4-yl)oxy)-3,5-difluorophenyl)-1-(3-fluoropyridin-2-yl)-5-(trifluoromethyl)-1H-pyrazole-4-carboxamide]
IC50 (RON): < 50 nM
IC50 (cMET): 50 to 500 nM

CC(C)(O)C#Cc1c(Oc2c(F)cc(NC(=O)c3cnn(-c4ncccc4F)c3C(F)(F)F)cc2F)ccnc1N [Example 58, N-(4-((2-amino-3-(3-hydroxy-3-methylbut-1-yn-1-yl)pyridin-4-yl)oxy)-3,5-difluorophenyl)-1-(3-fluoropyridin-2-yl)-5-(trifluoromethyl)-1H-pyrazole-4-carboxamide]
IC50 (RON): < 50 nM
IC50 (cMET): 50 to 500 nM

COCCCN1CCC(n2ncc(C(=O)Nc3cc(F)c(Oc4ccnc(N)c4Cl)c(F)c3)c2C(F)(F)F)CC1 [Example 59, N-(4-((2-amino-3-chloropyridin-4-yl)oxy)-3,5-difluorophenyl)-1-(1-(3-methoxypropyl)piperidin-4-yl)-5-(trifluoromethyl)-1H-pyrazole-4-carboxamide]
IC50 (RON): 500 to 5000 nM
IC50 (cMET): > 5000 nM
